Laboratory results as given in ChEMBL document CHEMBL5500384, “New synergistic benzoquinone scaffolds as inhibitors of mycobacterial cytochrome bc1 complex to treat multi-drug resistant tuberculosis” (Eur J Med Chem, 2024).
Converted amounts (≈) assume the structure as drawn.

Experiments:
[1] = test system: Mycobacterium tuberculosis; assay: Antitubercular activity against Mycobacterium tuberculosis H37Rv incubated for 5 days by microtiter plate method; type: functional; details: 120 h, time 5 day
[2] = Cytotoxicity against african green monkey Vero cells by MTT assay; type: toxicity, cell-based; details: chlorocebus sabaeus
[3] = Cytotoxicity against african green monkey Vero cells assessed as cell viability at 100 ug/ml by MTT assay; type: toxicity, cell-based; details: chlorocebus sabaeus, at 100 µg/mL, read-out: Activity
[4] = Cytotoxicity against african green monkey Vero cells assessed as cell viability at 50 ug/ml by MTT assay; type: toxicity, cell-based; details: chlorocebus sabaeus, at 50 µg/mL, read-out: Activity
[5] = Cytotoxicity against african green monkey Vero cells assessed as cell viability at 25 ug/ml by MTT assay; type: toxicity, cell-based; details: chlorocebus sabaeus, at 25 µg/mL, read-out: Activity
[6] = Cytotoxicity against african green monkey Vero cells assessed as cell viability at 12.5 ug/ml by MTT assay; type: toxicity, cell-based; details: chlorocebus sabaeus, at 12.5 µg/mL, read-out: Activity
[7] = Cytotoxicity against african green monkey Vero cells assessed as cell viability at 6.25 ug/ml by MTT assay; type: toxicity, cell-based; details: chlorocebus sabaeus, at 6.25 µg/mL, read-out: Activity
[8] = Cytotoxicity against african green monkey Vero cells assessed as cell viability at 3.125 ug/ml by MTT assay; type: toxicity, cell-based; details: chlorocebus sabaeus, at 3.125 µg/mL, read-out: Activity
[9] = Acute toxicity in Albino mouse assessed as mortality at 2000 mg/kg, po after 2 to 4 hrs; type: organism-based; details: in vivo, time 2-4 hrs
[10] = Acute toxicity in Albino mouse assessed as mortality at 300 mg/kg, po after 14 days; type: organism-based; details: in vivo, 336 h, time 14 day
[11] = Acute toxicity in po dosed Albino mouse assessed as mortality after 14 days; type: organism-based; details: in vivo, time 14 day
[12] = Acute toxicity in Albino mouse assessed as change in hemoglobin level at 50 to 2000 mg/kg, po measured after 14 days (reference value: 12.8 g/dl); type: organism-based; details: in vivo, 336 h, dose 50-2000 mg/kg, time 14 day
[13] = Acute toxicity in Albino mouse assessed as change in total leucocyte count at 50 to 2000 mg/kg, po measured after 14 days (reference value: 7400 mm3); type: organism-based; details: in vivo, 336 h, dose 50-2000 mg/kg, time 14 day
[14] = Acute toxicity in Albino mouse assessed as change in neutrophils at 50 to 2000 mg/kg, po measured after 14 days (reference value: 75%); type: organism-based; details: in vivo, 336 h, dose 50-2000 mg/kg, time 14 day
[15] = Acute toxicity in Albino mouse assessed as change in lymphocytes at 50 to 2000 mg/kg, po measured after 14 days (reference value: 21%); type: organism-based; details: in vivo, 336 h, dose 50-2000 mg/kg, time 14 day
[16] = Acute toxicity in Albino mouse assessed as change in eosinophils at 50 to 2000 mg/kg, po measured after 14 days (reference value: 3%); type: organism-based; details: in vivo, 336 h, dose 50-2000 mg/kg, time 14 day
[17] = Acute toxicity in Albino mouse assessed as change in monocytes at 50 to 2000 mg/kg, po measured after 14 days (reference value: 1%); type: organism-based; details: in vivo, 336 h, dose 50-2000 mg/kg, time 14 day
[18] = Acute toxicity in Albino mouse assessed as change in ESR at 50 to 2000 mg/kg, po measured after 14 days (reference value: 10 millimeter); type: organism-based; details: in vivo, 336 h, dose 50-2000 mg/kg, time 14 day
[19] = Acute toxicity in Albino mouse assessed as change in platelet count at 50 to 2000 mg/kg, po measured after 14 days (reference value: 3.24 mm3); type: organism-based; set-up: unit not given here; details: in vivo, 336 h, dose 50-2000 mg/kg, time 14 day
[20] = Acute toxicity in Albino mouse assessed as change in RBC count measured per million cells at 50 to 2000 mg/kg, po measured after 14 days (reference value: 9.15 microL); type: organism-based, Erythrocyte; details: in vivo, 336 h, dose 50-2000 mg/kg, time 14 day
[21] = Acute toxicity in Albino mouse assessed as change in SGOT count at 50 to 2000 mg/kg, po measured after 14 days (reference value: 42 IU/L); type: organism-based; details: in vivo, 336 h, dose 50-2000 mg/kg, time 14 day
[22] = Acute toxicity in Albino mouse assessed as change in SGPT count at 50 to 2000 mg/kg, po measured after 14 days (reference value: 52 IU/L); type: organism-based; details: in vivo, 336 h, dose 50-2000 mg/kg, time 14 day
[23] = Acute toxicity in Albino mouse assessed as change in serum creatine level at 50 to 2000 mg/kg, po measured after 14 days (reference value: 0.9 mg/dl); type: organism-based; details: in vivo, 336 h, dose 50-2000 mg/kg, time 14 day
[24] = Acute toxicity in Albino mouse assessed as change in serum urea level at 50 to 2000 mg/kg, po measured after 14 days (reference value: 46 mg/dl); type: organism-based; details: in vivo, 336 h, dose 50-2000 mg/kg, time 14 day
[25] = Acute toxicity in Albino mouse assessed as change in ALP level at 50 to 2000 mg/kg, po measured after 14 days (reference value: 28 IU/L); type: organism-based; details: in vivo, 336 h, dose 50-2000 mg/kg, time 14 day
[26] = Acute toxicity in Albino mouse assessed as change in LDH level at 50 to 2000 mg/kg, po measured after 14 days (reference value: 1052 IU/L); type: organism-based; details: in vivo, 336 h, dose 50-2000 mg/kg, time 14 day
[27] = Renal toxicity in Albino mouse assessed as change in renal corpuscles at 50 to 2000 mg/kg, po measured after 14 days; type: organism-based; details: in vivo, 336 h, dose 50-2000 mg/kg, time 14 day
[28] = Renal toxicity in Albino mouse assessed as change in renal tubules at 50 to 2000 mg/kg, po measured after 14 days; type: organism-based; details: in vivo, 336 h, dose 50-2000 mg/kg, time 14 day
[29] = Renal toxicity in Albino mouse assessed as change in Bowman's capsule at 50 to 2000 mg/kg, po measured after 14 days; type: organism-based; details: in vivo, 336 h, dose 50-2000 mg/kg, time 14 day
[30] = Renal toxicity in Albino mouse assessed as change in proximal convoluted tubules at 50 to 2000 mg/kg, po measured after 14 days; type: organism-based; details: in vivo, 336 h, dose 50-2000 mg/kg, time 14 day
[31] = Renal toxicity in Albino mouse assessed as change in distal convoluted tubules at 50 to 2000 mg/kg, po measured after 14 days; type: organism-based; details: in vivo, 336 h, dose 50-2000 mg/kg, time 14 day
[32] = Renal toxicity in Albino mouse assessed as change in tubular capillaries at 50 to 2000 mg/kg, po measured after 14 days; type: organism-based; details: in vivo, 336 h, dose 50-2000 mg/kg, time 14 day
[33] = Renal toxicity in Albino mouse assessed as extravasation of RBC at 50 to 2000 mg/kg, po measured after 14 days; type: organism-based, Erythrocyte; details: in vivo, 336 h, dose 50-2000 mg/kg, time 14 day
[34] = Renal toxicity in Albino mouse assessed as structural absorbability abnormalities at 50 to 2000 mg/kg, po measured after 14 days; type: organism-based; details: in vivo, 336 h, dose 50-2000 mg/kg, time 14 day
[35] = Hepatotoxicity in Albino mouse assessed as change in central vein at 50 to 2000 mg/kg, po measured after 14 days; type: toxicity, organism-based; details: in vivo, 336 h, dose 50-2000 mg/kg, time 14 day
[36] = Hepatotoxicity in Albino mouse assessed as change in portal tracks at 50 to 2000 mg/kg, po measured after 14 days; type: toxicity, organism-based; details: in vivo, 336 h, dose 50-2000 mg/kg, time 14 day
[37] = Hepatotoxicity in Albino mouse assessed as change in portal vein at 50 to 2000 mg/kg, po measured after 14 days; type: toxicity, organism-based; details: in vivo, 336 h, dose 50-2000 mg/kg, time 14 day
[38] = Hepatotoxicity in Albino mouse assessed as change in hepatic artery at 50 to 2000 mg/kg, po measured after 14 days; type: toxicity, organism-based, Liver; details: in vivo, 336 h, dose 50-2000 mg/kg, time 14 day
[39] = Hepatotoxicity in Albino mouse assessed as change in bile duct at 50 to 2000 mg/kg, po measured after 14 days; type: toxicity, organism-based, Liver; details: in vivo, 336 h, dose 50-2000 mg/kg, time 14 day
[40] = Hepatotoxicity in Albino mouse assessed as change in hepatocytes at 50 to 2000 mg/kg, po measured after 14 days; type: toxicity, organism-based; details: in vivo, 336 h, dose 50-2000 mg/kg, time 14 day
[41] = Pulmonary toxicity in Albino mouse assessed as change in bronchi structure at 50 to 2000 mg/kg, po measured after 14 days; type: organism-based; details: in vivo, 336 h, dose 50-2000 mg/kg, time 14 day
[42] = Pulmonary toxicity in Albino mouse assessed as change in alveoli structure at 50 to 2000 mg/kg, po measured after 14 days; type: organism-based; details: in vivo, 336 h, dose 50-2000 mg/kg, time 14 day
[43] = Pulmonary toxicity in Albino mouse assessed as change in alveolar sacs at 50 to 2000 mg/kg, po measured after 14 days; type: organism-based; details: in vivo, 336 h, dose 50-2000 mg/kg, time 14 day
[44] = Pulmonary toxicity in Albino mouse assessed as change in squamous pneumocytes at 50 to 2000 mg/kg, po measured after 14 days; type: organism-based; details: in vivo, 336 h, dose 50-2000 mg/kg, time 14 day
[45] = Pulmonary toxicity in Albino mouse assessed as appearance of goblet cells at 50 to 2000 mg/kg, po measured after 14 days; type: organism-based; details: in vivo, 336 h, dose 50-2000 mg/kg, time 14 day
[46] = Pulmonary toxicity in Albino mouse assessed as appearance of cilia at 50 to 2000 mg/kg, po measured after 14 days; type: organism-based; details: in vivo, 336 h, dose 50-2000 mg/kg, time 14 day

CCOc1cc(C2C(Cl)C(=O)N2C2=C(Cl)C(=O)c3ccccc3C2=O)ccc1O (stereo unspecified)
MIC [1]: 14.5 µM (≈ 6.25 µg/mL) | Activity [2]: Dose-Dependent Effect | viability at 100 ug/ml [3]: 10.4% | viability at 50 ug/ml [4]: 30.6% | viability at 25 ug/ml [5]: 67.8% | viability at 12.5 ug/ml [6]: 100% | viability at 6.25 ug/ml [7]: 100% | viability at 3.125 ug/ml [8]: 100% | Activity [9]: Toxic | Activity [10]: Non-Toxic | LD50 at 336 h [11]: 300 mg/kg | Activity [12]: 12.5 g/dL | Activity [13]: 8200 mm3 | Activity [14]: 66% | Activity [15]: 34% | Activity [16]: 3% | Activity [17]: 1% | Activity [18]: 11 millimeter/hr | Activity [19]: 4.9 | Activity [20]: 8.95 | Activity [21]: 168.67 IU/L | Activity [22]: 75.33 IU/L | Activity [23]: < 0.3 mg/dL | Activity [24]: 35.72 mg/dL | Activity [25]: 832.75 IU/L | Activity [26]: 470.21 IU/L | Activity [27]: Non-Toxic | Activity [28]: Non-Toxic | Activity [29]: Non-Toxic | Activity [30]: Non-Toxic | Activity [31]: Non-Toxic | Activity [32]: Non-Toxic | Activity [33]: Non-Toxic | Activity [34]: Non-Toxic | Activity [35]: Non-Toxic | Activity [36]: Non-Toxic | Activity [37]: Non-Toxic | Activity [38]: Non-Toxic | Activity [39]: Non-Toxic | Activity [40]: Non-Toxic | Activity [41]: Non-Toxic | Activity [42]: Non-Toxic | Activity [43]: Non-Toxic | Activity [44]: Non-Toxic | Activity [45]: Non-Toxic | Activity [46]: Non-Toxic
